IC50 data for 23 molecules are collected here from patent publication US8962608B2, “Cycloalkylnitrile pyrazole carboxamides as janus kinase inhibitors” (Merck Sharp & Dohme Corp., priority 2011, dated 2015).

The target in assay [1] is JAK1 (recombinant purified GST-tagged catalytic domain) (Homo sapiens (Human), UniProt P23458). Kind of assay: biochemical.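 Also: biochemical assay with HTRF read-out.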
Assay [2] addresses JAK2 (recombinant purified GST-tagged catalytic domain) (Homo sapiens (Human), UniProt O60674). Kind of assay: biochemical.

JAK1 (recombinant purified GST-tagged catalytic domain), sequence (P23458 875-1153): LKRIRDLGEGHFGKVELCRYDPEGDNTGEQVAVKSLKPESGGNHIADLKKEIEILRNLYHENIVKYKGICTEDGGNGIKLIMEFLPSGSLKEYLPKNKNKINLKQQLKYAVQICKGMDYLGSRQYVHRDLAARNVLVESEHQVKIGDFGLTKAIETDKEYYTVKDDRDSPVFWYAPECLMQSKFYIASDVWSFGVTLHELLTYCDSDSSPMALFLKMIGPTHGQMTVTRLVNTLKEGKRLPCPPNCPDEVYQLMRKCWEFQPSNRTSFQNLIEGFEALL
JAK2 (recombinant purified GST-tagged catalytic domain), sequence (O60674 849-1124): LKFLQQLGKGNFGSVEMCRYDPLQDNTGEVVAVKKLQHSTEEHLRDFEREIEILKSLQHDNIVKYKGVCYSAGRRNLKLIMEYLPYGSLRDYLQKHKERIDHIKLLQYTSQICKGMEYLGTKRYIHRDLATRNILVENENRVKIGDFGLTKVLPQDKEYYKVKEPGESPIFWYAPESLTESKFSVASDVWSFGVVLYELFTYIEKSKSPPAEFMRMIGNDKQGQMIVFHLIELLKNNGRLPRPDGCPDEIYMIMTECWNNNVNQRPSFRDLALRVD

Broadly, the IC50 is the point on the concentration scale where inhibition reaches its midpoint. As for `CC(C)(O)C1CN(C(=O)[C@@H]2CC[C@@H](n3cc(C(N)=O)c(Nc4ccc(Cl)cc4)n3)[C@H](C#N)C2)C1` (single isomer, unassigned) [Example 35-3, 3-[(4-chlorophenyl)amino]-1-[(1R,2R,4R or 1S,2S,4S)-2-cyano-4-{[3-(1-hydroxy-1-methylethyl)azetidin-1-yl]carbonyl}cyclohexyl]-1H-pyrazole-4-carboxamide], the results for the IC50 in assay [1] and in assay [2] were 9 nM and 59 nM, respectively.
The matching figures for `N#C[C@@H]1C[C@H](C(=O)NC(C2CC2)C2CC2)CC[C@H]1n1cc(C(N)=O)c(Nc2ccc(Cl)cc2)n1` (single isomer, unassigned) [Example 35-5, 3-[(4-chlorophenyl)amino]-1-{(1R,2R,4R or 1S,2S,4S)-2-cyano-4-[(dicyclopropylmethyl)carbamoyl]cyclohcxyl}-1H-pyrazole-4-carboxamide]: 13 nM and 169 nM.
As for `N#C[C@H]1C[C@@H](C(=O)NC2COC2)CC[C@@H]1n1cc(C(N)=O)c(Nc2ccc(Cl)cc2)n1` (single isomer, unassigned) [Example 35-7, 3-[(4-chlorophenyl)amino]-1-[(1S,2S,4S or 1R,2R,4R)-2-cyano-4-(oxetan-3-ylcarbamoyl)cyclohexyl]-1H-pyrazole-4-carboxamide], the figures for the IC50 in assay [1] and in assay [2] were 33 nM and 243 nM, respectively.
The matching figures for `CS(=O)(=O)C1CN(C(=O)[C@@H]2CC[C@@H](n3cc(C(N)=O)c(Nc4ccc(Cl)cc4)n3)[C@H](C#N)C2)C1` (single isomer, unassigned) [Example 35-8, 3-[(4-chlorophenyl)amino]-1-[(1R,2R,4R or 1S,2S,4S)-2-cyano-4-{[3-(methylsulfonyl)azetidin-1-yl]carbonyl}cyclohexyl]-1H-pyrazole-4-carboxamide]: 3 nM and 19 nM.
As for `CC(C)(O)C1CN(C(=O)[C@H]2CC[C@H](n3cc(C(N)=O)c(Nc4ccc(Cl)cc4)n3)[C@@H](C#N)C2)C1` (single isomer, unassigned) [Example 35-9, 3-[(4-chlorophenyl)amino]-1-[(1S,2S,4S or 1R,2R,4R)-2-cyano-4-{[3-(1-hydroxy-1-methylethyl)azetidin-1-yl]carbonyl}cyclohexyl}-1H-pyrazole-4-carboxamide], the IC50 was found to be 30 nM in assay [1] and 315 nM in assay [2].
For `N#C[C@@H]1C[C@H](C(=O)NCC(F)(F)F)CCC1n1cc(C(N)=O)c(Nc2ccc(Cl)cc2)n1` (single isomer, unassigned) [Example 35-10, 3-[(4-chlorophenyl)amino]-1-{(1R,2R,4R or 1S,2S,4S)-2-cyano-4-[(2,2,2-trifluoroethyl)carbamoyl]cyclohexyl}-1H-pyrazole-4-carboxamide], the IC50 in assay [1] is 3 nM; in assay [2], 38 nM.
The matching figures for `N#C[C@@H]1C[C@H](C(=O)NC2COC2)CC[C@H]1n1cc(C(N)=O)c(Nc2ccc(Cl)cc2)n1` (single isomer, unassigned) [Example 35-13, 3-[(4-chlorophenyl)amino]-1-[(1R,2R,4R or 1S,2S,4S)-2-cyano-4-(oxetan-3-ylcarbamoyl)cyclohexyl]-1H-pyrazole-4-carboxamide]: 5 nM and 38 nM.
The matching figures for `N#C[C@@H]1C[C@H](C(=O)NC2CC(F)(F)C2)CC[C@H]1n1cc(C(N)=O)c(Nc2ccc(Cl)cc2)n1` (single isomer, unassigned) [Example 35-18, 3-[(4-chlorophenyl)amino]-1-{(1R,2R,4R or 1S,2S,4S)-2-cyano-4-[(3,3-difluorocyclobutyl)carbamoyl]cyclohexyl}-1H-pyrazole-4-carboxamide]: 13 nM and 136 nM.
The matching figures for `N#C[C@@H]1C[C@H](C(=O)NC2CC2)CC[C@H]1n1cc(C(N)=O)c(Nc2ccc(Cl)cc2)n1` (single isomer, unassigned) [Example 35-19, 3-[(4-chlorophenyl)amino]-1-[(1R,2R,4R or 1S,2S,4S)-2-cyano-4-(cyclopropylcarbamoyl)cyclohexyl]-1H-pyrazole-4-carboxamide]: 5 nM and 23 nM.
Consider `N#C[C@H]1C[C@@H](C(=O)NC2CC(F)(F)C2)CC[C@@H]1n1cc(C(N)=O)c(Nc2ccc(Cl)cc2)n1` (single isomer, unassigned) [Example 35-20, 3-[(4-chlorophenyl)amino]-1-{(1S,2S,4S or 1R,2R,4R)-2-cyano-4-[(3,3-difluorocyclobutyl)carbamoyl]cyclohexyl}-1H-pyrazole-4-carboxamide], for which the figures for the IC50 in assay [1] and in assay [2] were 21 nM and 172 nM, respectively.
The matching figures for `N#C[C@H]1C[C@@H](C(=O)NC(C2CC2)C2CC2)CC[C@@H]1n1cc(C(N)=O)c(Nc2ccc(Cl)cc2)n1` (single isomer, unassigned) [Example 35-21, 3-[(4-chlorophenyl)amino]-1-{(1S,2S,4S or 1R,2R,4R)-2-cyano-4-[(dicyclopropylmethyl)carbamoyl]cyclohexyl}-1H-pyrazole-4-carboxamide]: 25 nM and 500 nM.
The matching figures for `N#C[C@H]1C[C@@H](C(=O)NCC(F)(F)F)CC[C@@H]1n1cc(C(N)=O)c(Nc2ccc(Cl)cc2)n1` (single isomer, unassigned) [Example 35-22, 3-[(4-chlorophenyl)amino]-1-{(1S,2S,4S or 1R,2R,4R)-2-cyano-4-[(2,2,2-trifluoroethyl)carbamoyl]cyclohexyl}-1H-pyrazole-4-carboxamide]: 7 nM and 218 nM.
The matching figures for `N#C[C@H]1C[C@@H](C(=O)NC2CC2)CC[C@@H]1n1cc(C(N)=O)c(Nc2ccc(Cl)cc2)n1` (single isomer, unassigned) [Example 35-23, 3-[(4-chlorophenyl)amino]-1-[(1S,2S,4S or 1R,2R,4R)-2-cyano-4-(cyclopropylcarbamoyl)cyclohexyl]-1H-pyrazole-4-carboxamide]: 37 nM and 295 nM.
`CS(=O)(=O)C1CN(C(=O)[C@H]2CC[C@H](n3cc(C(N)=O)c(Nc4ccc(Cl)cc4)n3)[C@@H](C#N)C2)C1` (single isomer, unassigned) [Example 35-26, 3-[(4-chlorophenyl)amino]-1-[(1S,2S,4S or 1R,2R,4R)-2-cyano-4-{[3-(methylsulfonyl)azetidin-1-yl]carbonyl}cyclohexyl]-1H-pyrazole-4-carboxamide]: the results for the IC50 in assay [1] and in assay [2] were 2 nM and 49 nM, respectively.
The matching figures for `CC1(O)CN(C(=O)[C@@H]2CC[C@@H](n3cc(C(N)=O)c(Nc4ccc(Cl)cc4)n3)[C@H](C#N)C2)C1` (single isomer, unassigned) [Example 35-27, 3-[(4-chlorophenyl)amino]-1-{(1R,2R,4R or 1S,2S,4S)-2-cyano-4 [(3-hydroxy-3-methylazetidin-1-yl)carbonyl]cyclohexyl}-1H-pyrazole-4-carboxamide]: 5 nM and 35 nM.
The matching figures for `CC1(O)CN(C(=O)[C@H]2CC[C@H](n3cc(C(N)=O)c(Nc4ccc(Cl)cc4)n3)[C@@H](C#N)C2)C1` (single isomer, unassigned) [Example 35-30, 3-[(4-chlorophenyl)amino]-1-{(1S,2S,4S or 1R,2R,4R)-2-cyano-4-[(3-hydroxy-3-methylazetidin-1-yl)carbonyl]cyclohexyl}-1H-pyrazole-4-carboxamide]: 10 nM and 180 nM.
The matching figures for `CC(C)(C)NC(=O)[C@@H]1CC[C@@H](n2cc(C(N)=O)c(Nc3ccc(Cl)cc3)n2)[C@H](C#N)C1` (single isomer, unassigned) [Example 35-35, 1-[(1R,2R,4R or 1S,2S,4S)-4-(tert-butylcarbamoyl)-2-cyanocyclohexyl] 3-[(4-chlorophenyl)amino]-1H-pyrazole-4-carboxamide]: 47 nM and 425 nM.
Turning to `N#C[C@@H]1C[C@H](C(=O)N2CC3(COC3)C2)CC[C@H]1n1cc(C(N)=O)c(Nc2ccc(Cl)cc2)n1` (single isomer, unassigned) [Example 35-36, 3-[(4-chlorophenyl)amino]-1-[(1R,2R,4R or 1S,2S,4S)-2-cyano-4-(2-oxa-6-azaspiro[3.3]hept-6-ylcarbonyl)cyclohexyl]-1H-pyrazole-4-carboxamide], the IC50 in assay [1] came out at 10 nM; in assay [2] it was 111 nM.
Take `N#C[C@H]1C[C@@H](C(=O)N2CC3(COC3)C2)CC[C@@H]1n1cc(C(N)=O)c(Nc2ccc(Cl)cc2)n1` (single isomer, unassigned) [Example 35-37, 3-[(4-chlorophenyl)amino]-1-[(1S,2S,4S or 1R,2R,4R)-2-cyano-4-(2-oxa-6-azaspiro[3.3]hept-6-ylcarbonyl)cyclohexyl]-1H-pyrazole-4-carboxamide]: the IC50 is 43 nM in assay [1] and greater than 500 nM in assay [2].
The matching figures for `CC(C)(O)[C@H]1CC[C@H](n2cc(C(N)=O)c(Nc3ccc(Cl)cc3)n2)[C@@H](C#N)C1` (single isomer, unassigned) [Example 36-1, 3-(4-chlorophenylamino)-1-((1S,2S,4S or 1R,2R,4R)-2-cyano-4-(2-hydroxypropan-2-yl)cyclohexyl)-1H-pyrazole-4-carboxamide]: 0.65 nM and 4 nM.
With `CC(C)(O)[C@H]1CC[C@H](n2cc(C(N)=O)c(Nc3ccc(Cl)cc3)n2)[C@@H](C#N)C1` (single isomer, unassigned) [Example 36-2, 3-(4-chlorophenylamino)-1-((1R,2R,4R or 1S,2S,4S)-2-cyano-4-(2-hydroxypropan-2-yl)cyclohexyl)-1H-pyrazole-4-carboxamide], the values for the 50% inhibitory concentration (IC50) in assay [1] and in assay [2] were 3 nM and 20 nM, respectively.
The matching figures for `CO/N=C(\C)c1ccc(Nc2nn([C@H]3CCCC[C@@H]3C#N)cc2C(N)=O)cc1` (single isomer, unassigned) [Example 40, 1-[(1S,2S or 1R,2R)-2-Cyanocyclohexyl]-3-{[4-(N-methoxyethanimidoyl)phenyl]amino}-1H-pyrazole-4-carboxamide]: 0.35 nM and 2 nM.
The matching figures for `CC(=O)O[C@H]1C[C@H](C#N)[C@@H](n2cc(C(N)=O)c(Nc3ccc(C(F)(F)F)cc3)n2)C[C@@H]1O` [Example 41]: 20 nM and 184 nM.
